Experimental findings from patent publication US20210315893A1 (Galapagos NV, priority 2017, published 2021) are described below.

The target of one assay is T1, S1PR2 (Homo sapiens, UniProt O95136).
T1 construct: expressed in transfected cells
The assay is described as follows: S1PR2 binding assay (competition with radioactively labeled S1P, SpA). As to conditions: membranes from stable cell line over expressing S1PR2, SpA beads; read-out: S1P2 EC50 (nM), S1PR2 binding EC50. As for the experimental part: The following assay can be used for determination of S1PR2 binding. The binding assay measures the potential to compete with radioactively labeled S1P for binding to the receptor.
The assay is performed in a96 well plate where the following reagents are added. First 50 μL compound is added into the assay plate, followed by addition of 100 μL ofa mixture consisting of membrane and Scintillation proximity Assay (SpA) beads [mixture consists […] membranes derived from stable cell line over expressing SPR2, 0.5 mg/well Polyvinyltoluene-Wheat Germ-Agglutinin (PVT-WGA) beads (Perkin Elmer, RPNQOO1)]. All components are diluted in assay buffer containing 20 mM Tris pH 7.5; 10 mM MgCl2; 100 mM NaCl; 0.4% BSA FAF; 1 mM Na3VO4) and incubated for 15 min until addition to the assay plate. Subsequently, 50 ul of radioactively labeled S1P is added to the wells (Sphingosine, D-erythro-[3-3H] 1-phosphate; ARC; ART0778). After an incubation for 2 h at room temperature, plates are centrifuged at 2000 rpm during 20 min. Plates are read on a Topcount reader (Perkin Elmer) immediately after centrifugation (readout time, 1 min/well).

Assay [1] deals with T2, human GPCR sphingosine 1-phosphate receptor 2 (Homo sapiens, UniProt O95136).
T2 construct: host or cells: CHO
The assay is described as follows: S1PR2 antagonist Ca2+ flux assay. The class given is cell-based. As to conditions: antagonist mode, CHO-S1PR2 cells, S1P at EC80, Ca2+ fluorescence; read-out: S1P2 EC50 (nM), S1P2 antagonist EC50. How it is done: Triggering of S1PR2 by administration of Sphingosine-1-phosphate leads to a transient increase in intracellular Ca^2+. The Ca^2+ flux assays are measuring the release of Ca^2+ intracellularly by use of a Ca^2+ sensitive fluorescent dye. The assay is firstly run in agonist mode (incubation of compounds alone) to ensure that the Ca^2+ released measured is not caused by the test compound having an agonistic effect. Then the assay is continued in antagonist mode (Sphingosine-1-Phosphate added to incubated medium containing the test compounds).
CHO cells stably overexpressing human GPCR sphingosine 1-phosphate receptor 2 (CHO-S1PR2 Perkin Elmer; ES-594-A) are seeded from a frozen stock in 384 wells sterile microplates (50 μL; 7,500 cells/well) and are incubated overnight at 37° C. and 5% CO2. The next day cells are washed twice with starvation medium (F-12 Ham's medium containing 0.1% BSA (Fatty acid free: FAF)) and left in 25 μL starvation medium for 1 h at 37° C., 5% CO2. After this starvation cells are incubated with 25 μL buffer containing the Ca^2+-sensitive fluorescent dye (0.5 mg Fluo8+125 mg Allura Red in 100 mL of 1% DMSO, in HBSS+20 mM Hepes+5 mM probenecid). The cells are incubated for an additional 1 h after which 10 μL compounds, diluted in HBSS buffer with 20 mM Hepes and 0.1% BSA (FAF), are added to the cells and intracellular Ca2+ changes are immediately measured by reading fluorescence during 3 min (FDSS/pCELL reader). The ratio of the maximal fluorescence over the background fluorescence before compound injection is used to determine compound response.
After readout of the agonist activity, the plates are incubated for 15 min at 37° C. and 5% CO2. Then, cells are stimulated with 10 μL Sphingosine-1-Phosphate (S1P) (Avanti Polar lipids-860492P) at its EC80 concentration. Intracellular Ca2+ changes are immediately measured by reading fluorescence during 3 min (FDSS/pCELL reader). The ratio of the maximal fluorescence over the background fluorescence before compound injection is used to determine compound response.
The obtained ratio's for agonist and antagonist readout were normalized versus vehicle and EC 100 of S1P ascontrols for agonist mode and versus vehicle and […]. From these normalized data EC50 of the compounds are derived.
(A change in cytosolic calcium serves as a functional read-out for many receptors and channels.)

T1 sequence (O95136 whole entry): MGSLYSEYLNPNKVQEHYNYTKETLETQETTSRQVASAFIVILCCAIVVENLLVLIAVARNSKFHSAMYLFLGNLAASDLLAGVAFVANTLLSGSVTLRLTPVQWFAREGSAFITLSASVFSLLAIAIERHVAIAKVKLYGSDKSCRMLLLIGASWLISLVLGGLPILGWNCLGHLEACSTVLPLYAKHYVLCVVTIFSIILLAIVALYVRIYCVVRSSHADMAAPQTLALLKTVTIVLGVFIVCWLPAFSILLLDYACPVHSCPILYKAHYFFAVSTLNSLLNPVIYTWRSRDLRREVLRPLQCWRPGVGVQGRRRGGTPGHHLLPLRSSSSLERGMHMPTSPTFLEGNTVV
T2 sequence (O95136 whole entry): as above

As a reminder, the EC50 is the concentration giving half of the maximal effect. `O=c1c2ccccc2c(Cc2nc3cc(Cl)c(OC(F)(F)F)cc3[nH]2)nn1C1CCCC1` [Compound 24, 4-[[5-chloro-6-(trifluoromethoxy)-1H-benzimidazol-2-yl]methyl]-2-cyclopentyl-phthalazin-1-one]: the EC50 at S1PR2 was determined as 8450 nM.

With `O=c1c2ccccc2c(Cc2nc3cc(Cl)c(OC(F)(F)F)cc3[nH]2)nn1C1CCC1` [Compound 26, 4-[[5-chloro-6-(trifluoromethoxy)-1H-benzimidazol-2-yl]methyl]-2-cyclobutyl-phthalazin-1-one], in assay [1], the EC50 turned out to be 889 nM.

For `O=c1c2ccccc2c(Cc2nc3cc(Cl)c(OC(F)(F)F)cc3[nH]2)nn1CC1CCC1` [Compound 28, 4-[[6-chloro-5-(trifluoromethoxy)-1H-benzimidazol-2-yl]methyl]-2-(cyclobutylmethyl)phthalazin-1-one], the EC50 amounted to 1490 nM in assay [1] and 33300 nM at S1PR2.

As for `O=c1c2ccccc2c(Cc2nc3cc(Cl)c(OC(F)(F)F)cc3[nH]2)nn1CC1CCCO1` (centres unmarked) [Compound 34, 4-[[6-chloro-5-(trifluoromethoxy)-1H-benzimidazol-2-yl]methyl]-2-(THF-2-ylmethyl)phthalazin-1-one], the EC50 stood at 4340 nM in assay [1] and 5190 nM on S1PR2.

`O=c1c2ccccc2c(Cc2nc3cc(Cl)c(OC(F)(F)F)cc3[nH]2)nn1CC1CCCCO1` (centres unmarked) [Compound 35, 4-[[6-chloro-5-(trifluoromethoxy)-1H-benzimidazol-2-yl]methyl]-2-(tetrahydropyran-2-ylmethyl)phthalazin-1-one]: the EC50 on S1PR2 was determined as 5410 nM.

`CC1(Cn2nc(Cc3nc4cc(Cl)c(OC(F)(F)F)cc4[nH]3)c3ccccc3c2=O)COC1` [Compound 36, 4-[[6-chloro-5-(trifluoromethoxy)-1H-benzimidazol-2-yl]methyl]-2-[(3-methyloxetan-3-yl)methyl]phthalazin-1-one]: the EC50 in assay [1] is not below 19900 nM; on S1PR2 it was 100000 nM.

Regarding `CC1(C)OCC(Cn2nc(Cc3nc4cc(Cl)c(OC(F)(F)F)cc4[nH]3)c3ccccc3c2=O)O1` (centres unmarked) [Compound 38, 4-[[6-chloro-5-(trifluoromethoxy)-1H-benzimidazol-2-yl]methyl]-2-[(2,2-dimethyl-1,3-dioxolan-4-yl)methyl]phthalazin-1-one], the EC50 in assay [1] stood at 1280 nM; on S1PR2 it was 1210 nM.

In the case of `CN1CCCC(Cn2nc(Cc3nc4cc(Cl)c(OC(F)(F)F)cc4[nH]3)c3ccccc3c2=O)C1` (centres unmarked) [Compound 39, 4-[[6-chloro-5-(trifluoromethoxy)-1H-benzimidazol-2-yl]methyl]-2-[(1-methyl-3-piperidyl)methyl]phthalazin-1-one], the EC50 in assay [1] was not below 19900 nM; at S1PR2, 13400 nM.

Consider `CC(C)(C)C(=O)Cn1nc(Cc2nc3cc(Cl)c(OC(F)(F)F)cc3[nH]2)c2ccccc2c1=O` [Compound 44, 4-[[6-chloro-5-(trifluoromethoxy)-1H-benzimidazol-2-yl]methyl]-2-(3,3-dimethyl-2-oxo-butyl)phthalazin-1-one], for which the EC50 in assay [1] came to 2090 nM.

`O=C(Cn1nc(Cc2nc3cc(OCC(F)F)c(Cl)cc3[nH]2)c2c(C3CC3)cccc2c1=O)N1CCOCC1` [Compound 48, 4-[[6-chloro-5-(2,2-difluoroethoxy)-1H-benzimidazol-2-yl]methyl]-5-cyclopropyl-2-(2-morpholino-2-oxo-ethyl)phthalazin-1-one]: the EC50 in assay [1] worked out at 98.4 nM.

`N#Cc1cc2[nH]c(Cc3nn(CC(=O)N4CCOCC4)c(=O)c4ccccc34)nc2c(Cl)c1OCC(F)F` [Compound 53, 7-chloro-6-(2,2-difluoroethoxy)-2-[[3-(2-morpholino-2-oxo-ethyl)-4-oxo-phthalazin-1-yl]methyl]-3H-benzimidazole-5-carbonitrile]: in assay [1], the EC50 amounted to 2360 nM.

Turning to `O=c1c2ccccc2c(Cc2nc3cc(Cl)c(OC(F)(F)F)cc3[nH]2)nn1CC1CCCN1` (centres unmarked) [Compound 55, 4-[[6-chloro-5-(trifluoromethoxy)-1H-benzimidazol-2-yl]methyl]-2-(pyrrolidin-2-ylmethyl)phthalazin-1-one], the EC50 is 1460 nM in assay [1] and 4570 nM on S1PR2.

As to `O=c1c2ccccc2c(Cc2nc3cc(Cl)c(OC(F)(F)F)cc3[nH]2)nn1CC1CCCNC1` (centres unmarked) [Compound 58, 4-[[6-chloro-5-(trifluoromethoxy)-1H-benzimidazol-2-yl]methyl]-2-(3-piperidylmethyl)phthalazin-1-one], the EC50 worked out at 890 nM in assay [1] and 1100 nM on S1PR2.

For the compound `O=c1c2ccccc2c(Cc2nc3cc(Cl)c(OC(F)(F)F)cc3[nH]2)nn1CC1CNCCO1` (centres unmarked) [Compound 63, 4-[[5-chloro-6-(trifluoromethoxy)-1H-benzimidazol-2-yl]methyl]-2-(morpholin-2-ylmethyl)phthalazin-1-one], the EC50 in assay [1] came to 4160 nM; at S1PR2, 1270 nM.

On to `Cc1cccc2c(=O)n(CC(=O)N3CCOCC3)nc(Cc3nc4cc(OCC(F)F)c(C#N)cc4[nH]3)c12` [Compound 66, 6-(2,2-difluoroethoxy)-2-[[8-methyl-3-(2-morpholino-2-oxo-ethyl)-4-oxo-phthalazin-1-yl]methyl]-3H-benzimidazole-5-carbonitrile], for which the concentration giving a half-maximal response (EC50) in assay [1] is 18.9 nM; on S1PR2 it was 57.1 nM.

Take `CCOc1cc2[nH]c(Cc3nn(CC(=O)O)c(=O)c4ccccc34)nc2cc1C#N` [Compound 138, 2-[4-[(5-cyano-6-ethoxy-1H-benzimidazol-2-yl)methyl]-1-oxo-phthalazin-2-yl]acetic acid]: in assay [1], the EC50 was 45 nM.

Turning to `N#Cc1cc2[nH]c(Cc3nn(CC(=O)N4CCN(CCO)CC4)c(=O)c4ccccc34)nc2cc1OCC(F)F` [Compound 225, 6-(2,2-difluoroethoxy)-2-[[3-[2-[4-(2-hydroxyethyl)piperazin-1-yl]-2-oxo-ethyl]-4-oxo-phthalazin-1-yl]methyl]-3H-benzimidazole-5-carbonitrile], the EC50 in assay [1] is 388 nM.

In the case of `N#Cc1cc2[nH]c(Cc3nn(CC(=O)N4CCC(N5CCOCC5)CC4)c(=O)c4ccccc34)nc2cc1OCC(F)F` [Compound 238, 6-(2,2-difluoroethoxy)-2-[[3-[2-(4-morpholino-1-piperidyl)-2-oxo-ethyl]-4-oxo-phthalazin-1-yl]methyl]-3H-benzimidazole-5-carbonitrile], the EC50 on S1PR2 stood at 5240 nM.

On to `CS(=O)(=O)NC(=O)Cn1nc(Cc2nc3cc(OCC(F)F)c(F)cc3[nH]2)c2ccccc2c1=O` [Compound 248, 2-[4-[[5-(2,2-difluoroethoxy)-6-fluoro-1H-benzimidazol-2-yl]methyl]-1-oxo-phthalazin-2-yl]-N-methylsulfonyl-acetamide], for which the EC50 in assay [1] stood at 89.6 nM.

Consider `CS(=O)(=O)NC(=O)Cn1nc(Cc2nc3cc(OCC4(C#N)CC4)c(Cl)cc3[nH]2)c2ccccc2c1=O` [Compound 249, 2-[4-[[6-chloro-5-[(1-cyanocyclopropyl)methoxy]-1H-benzimidazol-2-yl]methyl]-1-oxo-phthalazin-2-yl]-N-methylsulfonyl-acetamide], for which the EC50 in assay [1] was determined as 10.2 nM.

In the case of `CC1(COc2cc3nc(Cc4nn(CC(=O)NS(C)(=O)=O)c(=O)c5ccccc45)[nH]c3cc2Cl)CC1` [Compound 250, 2-[4-[[6-chloro-5-[(1-methylcyclopropyl)methoxy]-1H-benzimidazol-2-yl]methyl]-1-oxo-phthalazin-2-yl]-N-methylsulfonyl-acetamide], the EC50 in assay [1] turned out to be 9.39 nM.

As to `CCOc1ccc2nn(Cc3nn(CC(=O)O)c(=O)c4ccccc34)cc2c1Cl` [Compound 254, 2-[4-[(4-chloro-5-ethoxy-indazol-2-yl)methyl]-1-oxo-phthalazin-2-yl]acetic acid], the EC50 in assay [1] was not below 19900 nM.

As for `CCOc1ccc2cn(Cc3nn(CC(=O)O)c(=O)c4ccccc34)nc2c1Cl` [compound 22, 2-[4-[(7-chloro-6-ethoxy-indazol-2-yl)methyl]-1-oxo-phthalazin-2-yl]acetic acid], in assay [1], the EC50 is not below 19900 nM.
